Consider two compounds from US4118561A, “7-(Substituted)-7H-pyrrolo[3,2-f]quinazoline-1,3-diamines” (priority 1977, dated 1978).

In data set [1] the test system is S. aureus 53-180. The data set can be described thus: In vitro antibacterial activity (MIC), S. aureus 53-180. Particulars: Staphylococcus aureus, 53180, 18 h.
Data set [2] has as its system N. catarrhalis 8193. The data set can be described thus: In vitro antibacterial activity (MIC), N. catarrhalis 8193. To be noted: 18 h.
For data set [3], the system named is P. cynomolgi. The data set can be described thus: Activity against P. cynomolgi infections in Rhesus monkeys. To be noted: Plasmodium cynomolgi, in Macaca mulatta, 168 h. It counts as in vivo, P. cynomolgi (infected Rhesus monkeys).
In data set [4] the test system is Plasmodium berghei KBG 173. The data set can be described thus: Antimalarial blood schizonticidal test in mice. Particulars: for ED100 / minimal effective dose: Plasmodium berghei, sc, single dose; for ED100: read-out: Lowest Dose Curing All Mice; for minimal effective dose: read-out: Min. Curing Dose; for Cure/Treat at Min. Curing Dose: at the Min. Curing Dose. Further details: ΔMST (increase in mean survival time): unit: days. The data set is classed as in vivo, Plasmodium berghei (infected ICR/HA Swiss mice). The procedure, abridged:
(§1)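 Single s.c. doses (peanut oil vehicle, graded levels) given 72 h after i.p. inoculation of young Swiss mice with P. berghei KBG 173 blood (4 × 10^7 parasitized cells). Activity judged by cures (alive at 60 days) or significant mean survival gain over untreated controls, without drug-related deaths.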

A short description of data set [5]: Antimalarial blood schizonticidal test in mice. It counts as in vivo, Plasmodium berghei (infected ICR/HA Swiss mice). To be noted: mouse, in vivo, sc, single dose, read-out: Highest Non-Lethal Dose. Further details: ΔMST (increase in mean survival time): unit: days. Summed up: as §1
In data set [6] the test system is lymphocytic leukemia P-388. The data set can be described thus: Activity in mice against lymphocytic leukemia P-388. The data set is classed as in vivo. Particulars: Mus musculus, P388, ip, read-out: T/C.
Data set [7] in a line: Acute toxicity in mice, i.p. single dose. To be noted: mouse, in vivo, ip; mice, single dose, 14 days. It counts as in vivo, Charles River COBS CD Strain Albino mice, male. The protocol: (§2) Single doses of 7-(phenylmethyl)-7H-pyrrolo[3,2-f]-quinazoline-1,3-diamine (active moiety) were intraperitoneally administered in 0.5% carboxymethylcellulose at a constant dose volume of 10 ml./kg., to groups of 10 mice/dose level. (Charles River COBS CD Strain Albino mice, male, weight 21.0-25.29.) Daily observations were made on all mice for the duration of experiment (14 days). […] (95% confidence limits of 48.6-93.4) all deaths occurred 4-5 days post-drug-administration.
(§3) These effects lasted up to 6 days in the low dose animals and 14 days in those animals having received the highest dose. All mice alive on day 14 were sacrificed and necropsied.

Data set [8] relates to mice. The data set can be described thus: Acute toxicity in mice, i.p. single dose. The data set is classed as in vivo, Charles River COBS CD Strain Albino mice, male. How it is done: as §2, §3
Data set [9] relates to Proteus mirabilis 190. The data set can be described thus: In vivo antibacterial synergism (mouse), Proteus mirabilis 190. Further details: species or system Proteus mirabilis (infected mice, CD-1). How it is done: The test agents are weighed, suspended in 0.5% aqueous carboxymethyl cellulose, homogenized (glass tissue grinder) and diluted according to the design of the experiment. Mice (male, 18±1 g., CD-1 strain) are pre-weighed, pooled, infected at random intraperitoneally with a 0.5 ml. standardized suspension (LD95 ±5%) of the bacterial organism in 5% gastric mucin and treated at random with single doses of the test agents either at the time of infection or six hours after infecting. The treated groups consist of ten mice per dosage level. Deaths are recorded daily for 14 days and the PD50 (mice are treated at time of infection) and CD50 (mice are treated six hours after infecting) values are calculated by the method of Reed and Muench [Amer. J. Hyg., 27, 493 (1938)].

The subject of data set [10] is S. aureus Smith. The data set can be described thus: In vitro antibacterial activity (MIC), S. aureus Smith. Particulars: Staphylococcus aureus, 18 h.
Data set [11] concerns K. pneumoniae 10031. The data set can be described thus: In vitro antibacterial activity (MIC), K. pneumoniae 10031. To be noted: Klebsiella pneumoniae, 10031, 18 h.
Data set [12] has as its system S. paratyphi 11737. The data set can be described thus: In vitro antibacterial activity (MIC), S. paratyphi 11737. The data set is classed as cell-based. Particulars: Salmonella enterica, 18 h.
Data set [13] concerns E. coli 9637. The data set can be described thus: In vitro antibacterial activity (MIC), E. coli 9637. To be noted: Escherichia coli, 9637, 18 h.
The test system of data set [14] is P. vulgaris 6896. The data set can be described thus: In vitro antibacterial activity (MIC), P. vulgaris 6896. To be noted: Proteus vulgaris, 6896, 18 h.
Data set [15] has as its system strains of P. berghei resistant to chloroquine, sulfones, cycloguanil, and pyrimethamine. The data set can be described thus: Activity against resistant strains of P. berghei in mice. The data set is classed as in vivo, P. berghei (infected mice). The source says: Activity against strains of P. berghei resistant to chloroquine, sulfones, cycloguanil, and pyrimethamine, is shown by the testing of 7-(phenylmethyl)-7H-pyrrolo[3,2-f]quinazoline-1,3-diamine and 7-[(2,5-dimethylphenyl)methyl]-7H-pyrrolo[3,2-f]quinazoline-1,3-diamine in mice against such resistant strains.

In brackets after ≈: the same amount, converted by molar mass. Read-outs that look alike come from different tables or passages of the source.

The term MIC denotes the lowest concentration that inhibits growth of the organism. Usually LD50 stands for the dose expected to kill half of the subjects tested.

As for `Nc1nc(N)c2c(ccc3c2ccn3Cc2ccccc2)n1` [Example 2, 7-(Phenylmethyl)-7H-pyrrolo[3,2-f]quinazoline-1,3-diamine], the MIC in [1] was 1.95 µg/mL (≈ 6.74 µM); in data set [2], 0.061 µg/mL (≈ 0.211 µM); in [10], 1.95 µg/mL (≈ 6.74 µM); in [11] it was 1.95 µg/mL (≈ 6.74 µM); in [12] it was 1.95 µg/mL (≈ 6.74 µM); in data set [13], 1.95 µg/mL (≈ 6.74 µM). Also, 7.81 µg/mL (≈ 27 µM) was the least that counted as inhibitory in data set [14] (MIC). Also, the ED50 in data set [3] (po, read-out: CD50) was 0.1 mg/kg; in data set [9] (Proteus mirabilis, 190, po, 336 h, read-out: PD50 (agent alone)), 22.5 mg/kg. In data set [4] (1440 h, s.c., 60-day survivors), the ED100 is 80 mg/kg. Also, the minimal effective dose in [4] (this is the lowest dose tested) amounted to 20 mg/kg. Besides, in [4] (s.c., 60-day survivors), the “Cure/Treat at Min. Curing Dose” value is recorded as 2/5. Further, the “ΔMST (increase in mean survival time)” value in data set [4] (s.c., dose 20 mg. per kg.) worked out at 10.9. Further, the MTD in data set [5] (infected mice, highest dose with no deaths for any reason) came out at 160 mg/kg. Moreover, the response vs control in vivo at 10 mg/kg in [6] came out at 149%. The compound further showed a median lethal dose (LD50) at 336 h in data set [7] of 54.5 mg/kg. The duration of effects in data set [8] (animals having received the highest dose, i.p.) is 14 days; in data set [8] (low dose animals, i.p.), “up to 6 days”. Besides, the “signs observed on day 2 post-drug-administration” value in [8] (day 2, i.p. single dose) was “rough coats and decreased fecal elimination”. The “necropsy, macroscopic” value in [8] (mice alive on day 14) is “Macroscopically, the tissues appeared normal”. Besides, the “time of deaths post-drug-administration” value in data set [8] (mice, i.p., single dose) was 4 to 5 days. In data set [8] (mice, i.p., single dose, 14 days), the “LD50, 95% confidence limits” value was 48.6 to 93.4 mg/kg. Further, in data set [8] (within 1 hour after i.p. injection), the “signs in all mice after i.p. injection” value is “decreased spontaneous motor activity, bradypnea, ptosis, and stretching with indrawn sides in all mice”. The “PD50 SM/Cpd. (compound part)” value in data set [9] (mice, p.o., 0 hours, with SM 1.56 mg. per kg., 20160 min) was 7.78 mg. per kg.
With `Cc1ccc(C)c(Cn2ccc3c4c(N)nc(N)nc4ccc32)c1` [Example 23, 7-[(2,5-dimethylphenyl)methyl]-7H-pyrrolo[3,2-f]quinazoline-1,3-diamine], the MIC in [1] worked out at 0.976 µg/mL (≈ 3.08 µM); in [2] it was 0.244 µg/mL (≈ 0.769 µM); in [10], 3.9 µg/mL (≈ 12.3 µM); in data set [11] it was 1.95 µg/mL (≈ 6.14 µM); in data set [12], 125 µg/mL (≈ 394 µM); in data set [13], 31.3 µg/mL (≈ 98.6 µM). The same compound had an MIC in data set [14] of 250 µg/mL (≈ 788 µM). Moreover, the ED50 in [3] (Rhesus monkeys, oral, seven days, read-out: CD50 (the source's name)) stood at 1 mg/kg. Also, in data set [4] (1440 h, s.c., 60-day survivors), the ED100 is 40 mg/kg. Besides, the minimal effective dose in data set [4] (1440 h, s.c., 60-day survivors) came to 10 mg/kg. Also, in data set [4] (s.c., 60-day survivors), the “Cure/Treat at Min. Curing Dose” value is listed as 3/5. Also, in data set [4] (s.c., dose 5 mg. per kg.), the “ΔMST (increase in mean survival time)” value stood at 7.9. In addition, the MTD in data set [5] (this is the highest dose tested) turned out to be 640 mg/kg. Also, the “Activity against resistant strains” value in data set [15] is given as “Activity”. The response vs control in vivo at 10 mg/kg in [6] (mice, I.P., 10 mg/kg) is 142%.
